In US20250060368A1, “METHODS OF DETECTING AND TREATING IMMUNOTHERAPY-RESISTANT CANCER” (Washington University, priority 2022, published 2025):

Assays:
B-ALL [1] = conditions: patients receiving blinatumomab or anti-CD19 CAR T for B-ALL; cited from earlier work
B-ALL [2] = test: Clinical case of B-ALL patient treated with blinatumomab and KTE-X19 (ZUMA-3); format: in vivo, human; conditions: person with B-ALL, CD19ΔTyr260
Description: A person with B-ALL was treated with chemotherapy followed by 2 cycles of blinatumomab as initial therapy. […] B lymphoblasts. Using targeted RNA sequencing, an in-frame deletion within the extracellular domain of CD19 at […]) was identified (FIG. 6A).

Substance: blinatumomab: CD19 bispecific T-cell engager approved for R/R B-ALL
- Patients in whom emergence of CD19-negative clones is a cause of relapse (B-ALL [1]): 10%-20%
- Clinical response (B-ALL [2]): relapsed after the second cycle
